The values that follow come from patent US8329685B1, “Enhancement of the action of anti-infective agents and of central and peripheral nervous system agents and transportation of nucleic acid substances” (priority 2001, dated 2012).

Converted amounts (≈) assume the structure as drawn. “Also recorded” adds a separate entry of the source. Where two headings read alike, the source gives them in different places.

Data set [1] relates to Plasmodium Falciparum drug resistant reference strain W2. Kind of data set: Growth of malaria parasites in human erythrocyte cultures (% parasitaemia, Giemsa smears). In kind it is cell-based. From the text:
The specific parasite investigated was the reference drug resistant strain W2 of the species Plasmodium Falciparum. Plasmodium Falciparum is the most commonly occurring as well as the most virulent malaria parasite currently known in man.
The system used in this investigation aims to mimic the live situation as closely as possible. For that reason, the parasites were infected into fresh primary erythrocytes isolated from O+ or A+ blood donors.
Furthermore, human serum prepared from the same donors was used as an adjuvant instead of foetal calf serum. Parasite growth was maintained by the addition of freshly prepared erythrocytes from the same donors.
The growth of the parasites was determined by visualization of the parasite DNA on thin smears of the infected cultures. Since mature erythrocytes contain no nucleus, and therefore no DNA, the only DNA present was of parasitic origin. Only intracellular parasites were included in determining the percentage parasitaemia, as extracellular parasites are no longer viable.
A. Culturing of Malaria Parasites: • 1. Preparation of fresh human erythrocytes • 2. Preparation of human serum from the same donor. • 3. Quality control of human serum. • 4. Infection of erythrocyte cultures with parasites. Initial infection load was 0.5% parasitaemia. • 5. Maintenance of parasite blood cultures • 6. The parasite percentage in the blood cultures was determined after 36 or 48 hours, depending on the level of infection of the freshly added erythrocytes.
A stock solution of 10 mM chloroquine solution in a 1:250 dilution of nanolipid formulation was made by vortexing and sonication. All concurrent dilutions were from this stock.
D Drug Delivery by MZL Nanolipid Formulations: • 1 Penetrance of nanolipid formulations in red blood cells was determined by microscopic visualization, as were the penetrance of chloroquine-carrying nanolipid formulations. • 2. […] Typically 48-well plates or 96-well plates were used. 200 ul or 100 ul total culture volumes were used respectively, of which 90% of the volume was infected erythrocyte culture. 10% volume was used for the treatment, be it chloroquine in Nanolipid formulation, chloroquine in water, or for the controls 1:250 pure Nanolipid formulation, pure culturing media or water only. • 4. All series were in duplicate.
Parasitic DNA was visualised by Giemsa staining of thin smears. Ethidium bromide or acridine orange may be used for fluorescent staining.
The % infection after applicable incubation periods was determined as follows: […]

Data set [2] has the same test system. The note with it: read-out: 50% Inhibition concentration value (IC50); free Chloroquine; known value of strain W2; cited from earlier work.
The next data set concerns M. tuberculosis H37Rv. Kind of data set: BACTEC growth index with Ethambutol with and without MZL. In kind it is cell-based, Mycobacterium tuberculosis. The note with it: for inhibition at 0.0325 µg/mL: 0.0325 μg/ml Ethambutol; for inhibition at 0.0625 µg/mL: 0.0625 μg/ml Ethambutol; for inhibition at 0.125 µg/mL: 0.125 μg/ml Ethambutol; for inhibition at 0.25 µg/mL: 0.25 μg/ml Ethambutol; for inhibition at 0.5 µg/mL: 0.5 μg/ml Ethambutol; for inhibition at 1 µg/mL: 1.0 μg/ml Ethambutol.

Data set [3] relates to melanoma cells (UCT MeI 1 cell line) incubated with fungi. The note with it: 0.2%.
The conditions of data set [4]: human, in vivo.
For data set [5] the following is noted: 20° C. and 2 atm pressure; cited from earlier work.
Data set [6] has as its system HIV subtype D viruses in CD4 helper T-cells (CEM-SS cell line). Kind of data set: HIV viral load (p24 core antigen ELISA) in infected CD4 helper T-cells. In kind it is cell-based, HIV-1. How it is done:
The following protocols were followed in this investigation: • a) Several cultures of CD4 helper T-cells (CEM-SS cell line; NIH AIDS Research and Reference Reagent Program) were infected with HIV subtype D viruses at applicable cell seeding densities and viral loads. Cells were maintained in tissue culture under standard culturing conditions. • b) The viral load in cultured cells were determined every day for 7 consecutive days after infection by measuring the p24 core antigen of HIV-1 in the supernatant culturing fluid by ELISA. This assay is based on a colour change after addition of substrate that is proportionate to the viral replication in each culture. The colour change is monitored by absorbance spectrophotometry at 450 nm. Negative control absorbance readings were used to calculate the absorbance/cut-off for each culture. • c) Determination of the optimal concentration of nanolipid-vesicle containing base formulation was done by cytotoxicity assays and cell growth curves. The cytotoxicity assay used was the standard MTT assay and spectrophotometry was once again used to determine cell viability for the CEM-SS cell line. Growth curves were used to determine the optimal concentration of base formulation for human macrophage cells (THP-1 cell line).
A general note: ELISA stands for enzyme-linked immunosorbent assay.

The test system of data set [7] is BCG (Bacillus of Calmette and Guerin). The conditions noted are these: after a two-hour incubation; free drug.
The subject of data set [8] is S. Aureus and P. Aeruginosa. As to the kind of experiment: Zone of inhibition study of Povidone iodine. In kind it is cell-based. The note with it: formulated with the nanolipid vesicles of Preparation 2; 6.30 g Povidone iodine in 100 g; FIG. 2.
Where [9] appears, read: Mycobacterium tuberculosis, H37RV, Minus MZL.
[10] abbreviates: Mycobacterium tuberculosis, H37RV, Plus MZL.

For `CCN(CC)CCCC(C)Nc1ccnc2cc(Cl)ccc12` (centres unmarked) [Chloroquine], the “% Parasit” value in data set [1] (1 nM chloroquine) is listed as 2.67%; in data set [1] (5 nM chloroquine), 2.33%; in data set [1] (10 nM chloroquine), 2.96%; in data set [1] (25 nM chloroquine), 2.84%; in [1] (50 nM chloroquine), 2.7%; in [1] (75 nM chloroquine), 3.33%. In addition, the “% Parasit” value in data set [1] (100 nM chloroquine) is given as 2.81%; in data set [1] (200 nM chloroquine), 2.87%; in data set [1] (300 nM chloroquine), 1.8%; in [1] (500 nM chloroquine), 1.5%; in data set [1] (1000 nM chloroquine) it was 1.4%. Further, the IC50 in [2] was 200 to 300 nM.

As usually defined, the MIC is the least concentration at which growth counts as inhibited. The low end stands for inhibition by little substance, the high end for a need for much substance. Broadly, the inhibition is the drop in the measured response relative to a control, in per cent. As to `CC[C@@H](CO)NCCN[C@@H](CC)CO` [Ethambutol], in the data set on M. tuberculosis H37Rv (MZL treated, over the range of 0.03125 μg/ml-0.125 μg/ml Ethambutol), the “inhibition maintained with MZL” value is reported as “approx 50%”. Also, the minimal inhibitory concentration (MIC) in the data set on M. tuberculosis H37Rv (Mycobacterium tuberculosis, H37RV) was approximately 1 µg/mL (≈ 4.89 µM). Moreover, the inhibition at 0.0325 µg/mL with M. tuberculosis H37Rv (Mycobacterium tuberculosis, H37RV, Minus MZL, read-out: % Inhibition) was -21%. For the same molecule, in the data set on M. tuberculosis H37Rv (setting [9]), the inhibition at 0.0625 µg/mL was -16%, the inhibition at 0.125 µg/mL is -12%, the inhibition at 0.25 µg/mL came to 51% and the inhibition at 0.5 µg/mL is 81%. For the same molecule, the inhibition at 1 µg/mL in the data set on M. tuberculosis H37Rv (setting [9]) came out at 92%. Moreover, in the data set with M. tuberculosis H37Rv (setting [10]), the inhibition at 0.0325 µg/mL was 48%, the inhibition at 0.0625 µg/mL is 49%, the inhibition at 0.125 µg/mL amounted to 52% and the inhibition at 0.25 µg/mL is 51%. In addition, in the data set on M. tuberculosis H37Rv (setting [10]), the inhibition at 0.5 µg/mL turned out to be 62% and the inhibition at 1 µg/mL came to 86%.

Take `Clc1ccc(COC(Cn2ccnc2)c2ccc(Cl)cc2Cl)c(Cl)c1` (centres unmarked) [Free Miconazole, Miconazole nitrate]: the presence of fungi result in [3] (4 hours incubation) is listed as “fungi were still present in large numbers”. Moreover, the “viability / state of human melanoma cells” value in [3] (4 hours incubation with fungi, listed as free Miconazole nitrate) is “decline dramatically; also recorded: cells were no longer attached to the petri dish”.

For `NNC(=O)c1ccncc1` [INH, Isoniazid], the “bioavailability versus comparator Rifafour” value in data set [4] is listed as “enhanced bioavailability”.

In the case of `[N-]=[N+]=O` [Nitrous oxide], the solubility in water result in data set [5] is listed as “one liter of the gas dissolves in 1.5 liters of water”.

Broadly, the Tmax is the time at which the peak concentration occurs. For `CO[C@H]1/C=C/O[C@@]2(C)Oc3c(C)c(O)c4c(O)c(c(/C=N/N5CCN(C)CC5)c(O)c4c3C2=O)NC(=O)/C(C)=C\C=C\[C@H](C)[C@H](O)[C@@H](C)[C@@H](O)[C@@H](C)[C@H](OC(C)=O)[C@@H]1C` [Rifampicin], in data set [4] (female), the “increase of coverage by the nanolipid delivery system” value was found to be 180% and the “total average increase in bioavailability by Nanolipid delivery system” value worked out at 227%. Also, in data set [4] (female, po), the time of peak concentration (Tmax) stood at 1 h.

Regarding `Cc1cn([C@H]2C[C@H](N=[N+]=[N-])[C@@H](CO)O2)c(=O)[nH]c1=O` [free AZT, AZT], the “inhibition of viral growth and replication compared to the control” value in data set [6] (0.1 nM free AZT, by day 7 and 8) came out at 44%. Besides, the “AZT concentration at which viral inhibition is optimal” value in data set [6] (dilution of base-formulation 1:256) lay within 0.5 to 1 nM.

Regarding `NC(=O)c1cnccn1` [free Pyrazinamide, Pyrazinamide], the “bioavailability versus comparator Rifafour” value in [4] is reported as “enhanced bioavailability”. The BCG-viability in data set [7] is recorded as 68-72%.

For the molecule Povidone iodine, the “inhibition of bacterial growth versus free active” value in data set [8] is “dramatically increased”.
